This note sets out measurements from patent US8604243B2, “Fluorescent ion indicators for cadmium and lanthanide ion detection” (Life Technologies Corporation, priority 2005, dated 2013).

Holding throughout (format): binding
The nature of assay [1]: Fluorescence titration of indicator with calcium ions. The settings on record: for Kd: Table 3 binding constant, read-out: Kd Ca^2+; for F = F(bind)/F0, Ca^2+: fluorescent response to binding, in brackets.
The nature of assay [2]: Fluorescence titration of indicator with mercury ions in cuvettes. How it is done:
(§1) A dye stock (5.0×10^−4 M) solution of Compound 109 was prepared in DMSO. Lanthanide, Lead, cadmium and mercury ion solutions from 0-40 nM were prepared in disposable cuvettes by diluting a 100 mM metal ion stock solutions to a final volume of 2 mL with 100 mM MOPS (pH7). For the lanthanide titration, dye stock was diluted to give a final concentration of 50 nM. For the cadmium titration, dye stock was added to give a final concentration of 2.5×10^−7 M. For the mercury titrations, dye stock was added to give a final concentration of 2.5×10^−7 M. Samples were excited at 492 nm and fluorescence was recorded at 517 nm.

Assay [3] in a line: Fluorescence titration of indicator with zinc ions. The settings on record: for Kd: Table 3 binding constant, read-out: Kd Zn^2+; for F = F(bind)/F0, Zn^2+: fluorescent response to binding, in brackets.
The nature of assay [4]: Fluorescence titration of indicator with lanthanide ions in cuvettes. The settings on record: for F = F(bind)/F0, La^3+: fluorescent response to binding, in brackets. How it is done:
as §1

Assay [5] in a line: Fluorescence titration of indicator with cadmium ions in cuvettes. The settings on record: for F = F(bind)/F0, Cd^2+: fluorescent response to binding, in brackets. How it is done: as §1
A short description of assay [6]: Fluorescence titration of indicator with lead ions. The settings on record: for Kd: Table 3 binding constant, read-out: Kd Pb^2+; for F = F(bind)/F0, Pb^2+: fluorescent response to binding, in brackets. How it is done:
as §1

Assay [7] is described as follows: Fluorescence titration of indicator with manganese ions. The settings on record: for Kd: Table 3 binding constant, read-out: Kd Mn^2+; for F = F(bind)/F0, Mn^2+: fluorescent response to binding, in brackets.
Setting [8] is: Table 3 binding constant, read-out: Kd La^3+.
The mark [9] stands for this setting: Table 3 binding constant, read-out: Kd Cd^2+.

The term Kd denotes a measure of binding affinity in units of concentration. As for `O=C([O-])CN(CC(=O)[O-])c1ccccc1OCCOCCOc1cc(-c2c3cc(F)c(=O)cc-3oc3cc([O-])c(F)cc23)ccc1N(CC(=O)[O-])CC(=O)[O-].[K+].[K+].[K+].[K+].[K+]` [Compound 109], the Kd was 21400 nM in assay [1]; 2160 nM in assay [2] (100 mM MOPS pH7, dye 2.5×10^−7 M, excited 492 nm, recorded 517 nm, read-out: Kd mercury (Hg2+)); 2160 nM in assay [2] (Table 3 binding constant, read-out: Kd Hg^2+); 27100 nM in assay [3]; 10.3 nM in assay [4] (100 mM MOPS pH7, dye 50 nM, excited 492 nm, recorded 517 nm, read-out: Kd lanthanide (La(III))); 10 nM in assay [4] (setting [8]). In addition, the Kd was 61 nM in assay [5] (100 mM MOPS pH7, dye 2.5×10^−7 M, excited 492 nm, recorded 517 nm, read-out: Kd cadmium (Cd(II))); 61 nM in assay [5] (setting [9]); 38900 nM in assay [6]. Moreover, the “F = F(bind)/F0, Ca^2+” value in assay [1] is 68. In addition, in assay [2] (fluorescent response to binding, in brackets), the “F = F(bind)/F0, Hg^2+” value worked out at 20. In addition, the “F = F(bind)/F0, Zn^2+” value in assay [3] was found to be 8.8. In assay [4], the “F = F(bind)/F0, La^3+” value stood at 47. Also, the “F = F(bind)/F0, Cd^2+” value in assay [5] amounted to 11. Besides, the “F = F(bind)/F0, Pb^2+” value in assay [6] is listed as 20.

Regarding `CN(C)c1ccc2c(-c3ccc(N(CC(=O)[O-])CC(=O)O)c(OCCOCCOc4ccccc4N(CC(=O)O)CC(=O)O)c3)c3ccc(=[N+](C)C)cc-3oc2c1` [Compound 112], the Kd stood at 44900 nM in assay [1]; 35800 nM in assay [3]; 359 nM in assay [4] (setting [8]); 395 nM in assay [5] (setting [9]); 5440 nM in assay [6]; 80200 nM in assay [7]. Also, the “F = F(bind)/F0, Ca^2+” value in assay [1] was determined as 161. For the same compound, the “F = F(bind)/F0, Zn^2+” value in assay [3] is given as 17. The “F = F(bind)/F0, La^3+” value in assay [4] is 36. In addition, the “F = F(bind)/F0, Cd^2+” value in assay [5] is recorded as 39. The “F = F(bind)/F0, Pb^2+” value in assay [6] stood at 29. In addition, in assay [7], the “F = F(bind)/F0, Mn^2+” value is recorded as 1.82.

Consider `O=C([O-])CN(CC(=O)O)c1ccc(C2=c3cc4c5c(c3Oc3c2cc2c6c3CCCN6CCC2)CCC[N+]=5CCC4)cc1OCCOCCOc1ccccc1N(CC(=O)O)CC(=O)O` [Compound 115], for which the Kd in assay [1] was 67800 nM; in assay [3], 28600 nM; in assay [4] (setting [8]), 352 nM; in assay [5] (setting [9]), 331 nM; in assay [6], 189 nM; in assay [7] it was 136000 nM. Also, the “F = F(bind)/F0, Ca^2+” value in assay [1] came to 114. In assay [3], the “F = F(bind)/F0, Zn^2+” value amounted to 20. Also, the “F = F(bind)/F0, La^3+” value in assay [4] is 32. In addition, the “F = F(bind)/F0, Pb^2+” value in assay [6] is 33. The “F = F(bind)/F0, Mn^2+” value in assay [7] is listed as 2.5.
